Values of other authors in US20150190399A1, “NEW DIFFERENTIAL-RELEASE PHARMACEUTICAL COMPOSITION CONTAINING THREE ACTIVE PRINCIPLES” (LANDSTEINER SCIENTIFIC S.A. DE C.V., priority 2012, published 2015).

Conditions: in vivo

- half-life: approximately 2 hours
SMILES: CCCCc1nc(Cl)c(CO)n1Cc1ccc(-c2ccccc2-c2nn[nH]n2)cc1 [Losartan potassium, losartan potassium]
